Data on three compounds can be found in patent publication US6337325B1, “Combined preparation for the therapy of immune diseases” (Hoechst Aktiengesellschaft, priority 1994, dated 2002).

The test system of assay [1] is PHA-induced release of TNFα from peripheral blood mononuclear cells. Description: Inhibition of PHA-induced release of TNFα from PBMC (L929 cytotoxicity read-out). It counts as cell-based. The settings on record: Homo sapiens. How it is done: (§1) For all the in vitro tests, peripheral blood mononuclear cells (PBMC) were obtained from the blood of healthy donors by density gradient centrifugation in Ficoll-Hypaque (Pharmacia, Uppsala). This isolation step separated monocytes and lymphocytes from the other blood constituents. Further working-up of this PBMC fraction was carried out in accordance Ad with the requirements of the test preparations described below.
(§2) The resulting PBMC were incubated on microtiter plates together with phythemagglutinin (PHA, 5 μg/ml). […] Incubation was carried out at 37° C. in 5% CO2 with protection from the light. After 20 hours (h) (TNFα determination), 24 h (IL-2 determination) or 120 h (IFNγ determination), the cell supernatants were tested for cytokine release. TNFα was determined via its cytotoxicity to L929 cells, IL-2 was quantified via the proliferation of CTL-L6 cells and IFNγ was determined using a sandwich ELISA.
The following test examined the dependence of the inhibition of PHA-induced cytokine formation on the type of so-called “calcium antagonist” added.

The subject of assay [2] is patient with pronounced psoriasis. Description: Topical application to a single patient with pronounced psoriasis, subjective symptom scores. Conditions: after a 6-week application. It counts as in vivo, human. As for the experimental part:
The effect of the topical application of a combination according to the invention to a single patient with pronounced psoriasis was studied in a parallel comparison. For this purpose the test substances pentoxifylline and diltiazem, dissolved in 30 ml of polypropylene glycol/ethanol/water (1:1:1. v/v), were incorporated, individually or together, in a final concentration of 2% (pentoxifylline) or 1% (diltiazem), into a commercially available creamy skin care product (Nivea lotion), ultimately giving the following 4 different formulations:
A) lotion without test substance (=vehicle control)
B) lotion with 2% of pentoxifylline
C) lotion with 1% of diltiazem
D) lotion with 2% of pentoxifylline+1% of diltiazem
Twice a day for 6 weeks, these 4 formulations were applied locally, with rubbing, to areas of skin on the patient's trunk which were affected by pronounced symptoms of psoriasis and had previously been precisely defined, particular care being taken to ensure that the same formulation was always applied to the same area of skin. The therapeutic result was monitored visually and evaluated by means of the following subjective scores: […]

The test system of assay [3] is T lymphocytes stimulated via CD3/PMA. Description: T lymphocyte proliferation (3H-thymidine), stimulation via CD3/PMA. It counts as cell-based. Conditions: Homo sapiens, 72 h. As for the experimental part:
as §1
(§3) The PBMC fraction was further fractionated to give pure T lymphocytes. This was done using Lympho-KWIK-T, a mixture of monoclonal antibodies from anti-monocytes and anti-B cells and complement, together with a mixture of monoclonal anti-NK and anti-monocyte antibodies with Leu 11 b (anti-CD16, IgM) and Leu 7 (anti-CD57, IgM) (One Lambda Inc., Los Angeles, Calif., USA). The isolation and purification of the T lymphocytes from the PBMC fraction was effected by means of the following process steps:
(§4) Monocytes are removed by cold agglutination.
30×10^6 of the cells obtained are incubated with 0.8 ml of Lympho-KWIK-T for 1 hour at 37° C. […]
After 64 h of incubation the cells were treated in each case with 1 μCi of ^3H-thymidine; 8 h later they were collected on glass fiber filters and the incorporated radioactivity was measured in a β counter. […]

For assay [4], the system named is PHA-induced release of IFNγ from peripheral blood mononuclear cells. Description: Inhibition of PHA-induced release of IFNγ from PBMC (sandwich ELISA). It counts as cell-based. Conditions: Homo sapiens, PHA 5 μg/ml, 120 h. As for the experimental part: as §1, §2
For assay [5], the system named is PHA-induced release of IL-2 from peripheral blood mononuclear cells. Description: Inhibition of PHA-induced release of IL-2 from PBMC (CTL-L6 proliferation read-out). It counts as cell-based. Conditions: Homo sapiens. As for the experimental part: as §1, §2
Assay [6] has as its system T lymphocytes stimulated via CD28/PMA. Description: T lymphocyte proliferation (3H-thymidine), stimulation via CD28/PMA. It counts as cell-based, human. As for the experimental part: as §1, §3, §4
30×10^6 of the cells obtained are incubated with 0.8 ml of Lympho-KWIK-T for 1 hour at 37° C.
The cells are washed three times and then incubated for 30 minutes at 4° C. with the mixture of monoclonal anti-NK and anti-monocyte antibodies.
The cells are washed once and re-incubated with 0.8 ml of Lympho-KWIK-T for 1 hour at 37° C.
After 64 h of incubation the cells were treated in each case with 1 μCi of ^3H-thymidine; 8 h later they were collected on glass fiber filters and the incorporated radioactivity was measured in a β counter.
The percentage inhibition of the T lymphocyte proliferation by the test substances was compared with a control not containing test substance, subtracting a basal value without monoclonal antibodies. The mean value from 4 parallel preparations was used for the evaluation.

Read-outs that look alike come from different tables or passages of the source.

For `COc1ccc([C@@H]2Sc3ccccc3N(CCN(C)C)C(=O)[C@@H]2OC(C)=O)cc1` [Diltiazem, diltiazem], in assay [1] (Table 2, test substance alone, 10 μmol/l, read-out: percentage inhibition of the PHA-induced release of TNFα, test substance alone), the inhibition at 10 µM was determined as 39 ± 13%. Further, in assay [2], the “psoriasis symptoms relative to the initial situation, in words” value is recorded as “practically no visible difference”.

Consider `CCCC(=O)Nc1ncnc2c1ncn2[C@@H]1O[C@@H]2COP(=O)(O)O[C@H]2[C@H]1OC(=O)CCC` [db-cAMP, dibutyryl-cAMP], for which the inhibition at 0.1 µM in assay [1] (0.1 μmol/l final concentration, PHA 5 μg/ml, 20 h) amounted to 31 ± 13%; in assay [3] (0.1 μmol/l) it was 16 ± 6%; in assay [4] (0.1 μmol/l final concentration) it was 15 ± 8%; in assay [5] (read-out: IL-2 % inhibition, 0.1 μmol/l final concentration, PHA 5 μg/ml, 24 h), 12 ± 4%; in assay [6] (Homo sapiens, T-lymphocyte, 0.1 μmol/l, T lymphocytes, 72 h), 11 ± 6%. In assay [6] (single substance, stimulation via CD28), the “activity on T lymphocyte activation via the CD28-dependent mechanism, in words” value is “practically inactive”.

Take `CC(=O)CCCCn1c(=O)c2c(ncn2C)n(C)c1=O` [pentoxifylline]: the inhibition at 50 µM in assay [1] (50 μmol/l final concentration, PHA 5 μg/ml, 20 h, read-out: TNFα % inhibition) came out at 28 ± 10%; in assay [1] (Table 2, pentoxifylline alone, 50 μmol/l, read-out: percentage inhibition of the PHA-induced release of TNFα, pentoxifylline), 28 ± 10%; in assay [4] (50 μmol/l final concentration), 20 ± 9%; in assay [5] (read-out: IL-2 % inhibition, 50 μmol/l final concentration, PHA 5 μg/ml, 24 h), 14 ± 9%. Further, the inhibition at 40 µM in assay [3] (40 μmol/l) was 21 ± 7%; in assay [6] (Homo sapiens, T-lymphocyte, 40 μmol/l, T lymphocytes, 72 h) it was 28 ± 8%. Moreover, the “psoriasis symptoms relative to the initial situation, in words” value in assay [2] is reported as “improved only moderately”.
